# Tested on: 415267-285-R-J2-PDC complex spheroid viability
# Experiment: Anticancer human tumor 415267-285-R-J2-PDC patient-derived breast carcinoma cell line growth inhibition [POLQ]
# Settings: for IC50: curve of first compound; for viability, T/C: stronger effect = lower value
# Summary of the method: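 Growth inhibition in 3D: complex spheroids (tumor PDC, HUVEC, MSC) treated with POLQ inhibitor combinations; where Cmax unknown, highest tested concentration 10 microM, except SN-38 at 1 microM.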
# 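Further: spheroids exposed to compounds for one week before readout.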
# 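Wherever viability, T/C is given: luminescence used as stand-in measure of viable cells; 100% = DMSO vehicle control viability.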
smiles,measurement,setting,value
CCc1c2c(nc3ccc(O)cc13)-c1cc3c(c(=O)n1C2)COC(=O)[C@]3(O)CC + COC1C(OC(N)=O)C(O)C(Oc2ccc3c(O)c(NC(=O)c4ccc(O)c(CC=C(C)C)c4)c(=O)oc3c2C)OC1(C)C,IC50,second compound 0.0316 µM,< 3.16 nM
same,IC50,second compound 0.1 µM,< 3.16 nM
same,IC50,second compound 0.316 µM,< 3.16 nM
same,IC50,second compound 1 µM,< 3.16 nM
same,IC50,second compound 3.16 µM,< 3.16 nM
same,IC50,second compound 10 µM,< 3.16 nM
same,"viability, T/C","second compound 0.0316 µM, first compound 0.00316 µM",32.7%
same,"viability, T/C","second compound 0.0316 µM, first compound 0.01 µM",10%
same,"viability, T/C","second compound 0.0316 µM, first compound 0.0316 µM",6.54%
same,"viability, T/C","second compound 0.0316 µM, first compound 0.1 µM",4.82%
same,"viability, T/C","second compound 0.0316 µM, first compound 0.316 µM",3.41%
same,"viability, T/C","second compound 0.0316 µM, first compound 1 µM",1.27%
same,"viability, T/C","second compound 0.1 µM, first compound 0.00316 µM",38.3%
same,"viability, T/C","second compound 0.1 µM, first compound 0.01 µM",11%
same,"viability, T/C","second compound 0.1 µM, first compound 0.0316 µM",7.02%
same,"viability, T/C","second compound 0.1 µM, first compound 0.1 µM",5.02%
same,"viability, T/C","second compound 0.1 µM, first compound 0.316 µM",3.21%
same,"viability, T/C","second compound 0.1 µM, first compound 1 µM",1.32%
same,"viability, T/C","second compound 0.316 µM, first compound 0.00316 µM",36.5%
same,"viability, T/C","second compound 0.316 µM, first compound 0.01 µM",11%
same,"viability, T/C","second compound 0.316 µM, first compound 0.0316 µM",9.37%
same,"viability, T/C","second compound 0.316 µM, first compound 0.1 µM",4.84%
same,"viability, T/C","second compound 0.316 µM, first compound 0.316 µM",5.41%
same,"viability, T/C","second compound 0.316 µM, first compound 1 µM",1.19%
same,"viability, T/C","second compound 1 µM, first compound 0.00316 µM",43.8%
same,"viability, T/C","second compound 1 µM, first compound 0.01 µM",9.67%
same,"viability, T/C","second compound 1 µM, first compound 0.0316 µM",7.66%
same,"viability, T/C","second compound 1 µM, first compound 0.1 µM",4.1%
same,"viability, T/C","second compound 1 µM, first compound 0.316 µM",4.05%
same,"viability, T/C","second compound 1 µM, first compound 1 µM",1.96%
same,"viability, T/C","second compound 3.16 µM, first compound 0.00316 µM",39.8%
same,"viability, T/C","second compound 3.16 µM, first compound 0.01 µM",9.67%
same,"viability, T/C","second compound 3.16 µM, first compound 0.0316 µM",6.74%
same,"viability, T/C","second compound 3.16 µM, first compound 0.1 µM",4.81%
same,"viability, T/C","second compound 3.16 µM, first compound 0.316 µM",3.35%
same,"viability, T/C","second compound 3.16 µM, first compound 1 µM",1.51%
same,"viability, T/C","second compound 10 µM, first compound 0.00316 µM",40.3%
same,"viability, T/C","second compound 10 µM, first compound 0.01 µM",10.1%
same,"viability, T/C","second compound 10 µM, first compound 0.0316 µM",7.22%
same,"viability, T/C","second compound 10 µM, first compound 0.1 µM",4.24%
same,"viability, T/C","second compound 10 µM, first compound 0.316 µM",3.48%
same,"viability, T/C","second compound 10 µM, first compound 1 µM",1.63%
